Source: patent US6909029B2, “Caenorhabditis elegans chemosensory bioassay for seven transmembrane receptor ligands” (SmithKline Beecham Corporation, priority 2000, dated 2005)

Tested on: C. elegans
Assay: Consumption of GFP-expressing bacteria by a culture of C. elegans (fluorescent plate reader)
Type: in vivo, Caenorhabditis elegans
Method: Two cultures of C. elegans and GFP-expressing bacteria were placed in microtiter wells. In one well, a lethal concentration of 10 nanomolar ivermectin was placed. The GFP fluorescence in the wells was determined by a fluorescent plate reader instrument at the initial time, and after two days of culture.
As the C. elegans grow and reproduce, the E. coli lawn is diminished until no bacteria remain. Therefore, the reduction of the bacterial lawn is a measurement of an actively feeding population of C. elegans. The rate of decrease of the lawn is proportional to the number of feeding animals present. […] The consumption of bacteria can be used as an indirect indicator of the distribution of animals. Substances can be spotted onto a substrate in an array, and a uniform lawn of bacteria placed on the substrate, overlaying the array. A test population of C. elegans can be introduced and incubated for a suitable time period to allow consumption of the lawn. If the animals are attracted to a substance, then they will move to that region of the substrate and the bacterial lawn will be diminished at that spot in comparison to the surrounding lawn. Conversely, if a substance repels the animals, then the bacterial lawn at that spot will not be consumed. Thus, bacterial consumption can be used to assay the growth and location of a population of nematodes. If a GFP-expressing bacterial strain is used (Chalfie, et al., supra) as was done in the experiment of Example 3, the variations in bacterial density can be easily detected, for example, by photographing fluorescence intensity.
In this experiment, GFP-expressing bacteria are placed in two microtiter wells along with a population of C. elegans. Because the bacteria express GFP, the amount of bacteria can easily be assayed using a fluorescent plate reader (Cytoflour, Perspective Biosystems). […] Initially, both wells show equivalent levels of bacteria. […] FIG. 3 depicts this experiment. Thus, bacterial consumption can be used to assay the growth and feeding of a population of nematodes. If a GFP-expressing bacterial strain is used (Chalfie, et al., supra) as was done in the experiment shown in FIG. 3, the variations in bacterial density can be easily visualized by photographing fluorescence intensity.

## ivermectin
10 nanomolar ivermectin, after two days of culture
  GFP fluorescence of bacteria in the well (Relative Intensity): GFP fluorescence increases
In vivo
  Effect on C. elegans: kills C. elegans
ivermectin-containing well, after 4 days of culture
  Amount of GFP-expressing bacteria in the well: shows bacterial growth
Microtiter well culture with GFP-expressing bacteria
  Lethal concentration for C. elegans: 10 nM
